Assay results taken from patent US6437128B1, “Cribrostatins 3-5” (Arizona Board of Regents, priority 2001, dated 2002).
Converted amounts (≈) assume the structure as drawn. “And” between values parts separate entries of the source, which are not always exact repeats. Equal entries are not always repeated.

Assays:
[1] = system: Enterococcus faecalis (ATCC 29212); assay: Antimicrobial disk diffusion; format: cell-based
[2] = system: Streptococcus pneumoniae (ATCC 6303); assay: Antimicrobial disk diffusion; format: cell-based; details: listed as 5
NCI-H226 = assay: NCI 60-cell screen; format: cell-based, human; details: Homo sapiens, averaged, quadruplicate, upper limit 10^−5 M, read-out: negative log10 GI50 (converted)
[3] = system: NCI 60-cell in vitro panel; assay: NCI 60-cell in vitro panel, mean panel; format: cell-based, human; details: Homo sapiens, 60 cell; average ±SEM from the 40 cell lines that yielded GI50 values for both 4a and 5
From the text: (§1) Individual cell line response values are provided in the Experimental.

786-O = assay: NCI 60-cell screen; format: cell-based, human; details: Homo sapiens, 786-0, averaged, quadruplicate, upper limit 10^−5 M, read-out: negative log10 GI50 (converted)
OVCAR-8 = assay: NCI 60-cell screen; format: cell-based, human; details: Homo sapiens, averaged, quadruplicate, upper limit 10^−5 M, read-out: negative log10 GI50 (converted)
[4] = system: Invasive S. pneumoniae (clinical isolate); assay: Antimicrobial disk diffusion; format: cell-based
MDA-MB-231/ATCC = assay: NCI 60-cell screen; format: cell-based, human; details: Homo sapiens, averaged, quadruplicate, upper limit 10^−5 M, read-out: negative log10 GI50 (converted)
T-47D = assay: NCI 60-cell screen; format: cell-based, human; details: Homo sapiens, T47D, averaged, quadruplicate, upper limit 10^−5 M, read-out: negative log10 GI50 (converted)
NCI-H460 = assay: NCI 60-cell screen; format: cell-based, human; details: Homo sapiens, averaged, quadruplicate, upper limit 10^−5 M, read-out: negative log10 GI50 (converted)
MALME-3M = assay: NCI 60-cell screen; format: cell-based, human; details: Homo sapiens, averaged, quadruplicate, upper limit 10^−5 M, read-out: negative log10 GI50 (converted)
SR = assay: NCI 60-cell screen; format: cell-based, human; details: Homo sapiens, averaged, quadruplicate, upper limit 10^−5 M, read-out: negative log10 GI50 (converted)
PC-3 = assay: NCI 60-cell screen; format: cell-based, human; details: Homo sapiens, averaged, quadruplicate, upper limit 10^−5 M, read-out: negative log10 GI50 (converted)
IGROV1 = assay: NCI 60-cell screen; format: cell-based, human; details: Homo sapiens, IGROV-1, averaged, quadruplicate, upper limit 10^−5 M, read-out: negative log10 GI50 (converted)
[5] = system: Bacillus subtilis (Presque Isle 620); assay: Antimicrobial disk diffusion; format: cell-based; details: listed as 5
MOLT-4 = assay: NCI 60-cell screen; format: cell-based, human; details: Homo sapiens, averaged, quadruplicate, upper limit 10^−5 M, read-out: negative log10 GI50 (converted)
OVCAR-3 = assay: NCI 60-cell screen; format: cell-based, human; details: Homo sapiens, averaged, quadruplicate, upper limit 10^−5 M, read-out: negative log10 GI50 (converted)
[6] = system: Penicillin-resistant N. gonorrhoeae (clinical isolate); assay: Antimicrobial disk diffusion; format: cell-based; details: listed as 5
[7] = system: Enterobacter cloacae (ATCC 13047); assay: Antimicrobial disk diffusion; format: cell-based
SW-1736 (Thyroid ca) = assay: ASU-CRI minipanel of human cancer cell lines; format: cell-based; details: Thyroid ca SW-1736
From the text: as §1

BXPC-3 (Pancreas-a) = assay: ASU-CRI minipanel of human cancer cell lines; format: cell-based; details: Homo sapiens; Pancreas-a BXPC-3; read-out: GI50
From the text: as §1

FADU (Pharynx-sq) = assay: ASU-CRI minipanel of human cancer cell lines; format: cell-based
From the text: as §1

KM20L2 (Colon) = assay: ASU-CRI minipanel of human cancer cell lines; format: cell-based; details: Homo sapiens, KM-20L2, read-out: GI50
From the text: as §1

SF-295 (CNS) = assay: ASU-CRI minipanel of human cancer cell lines; format: cell-based; details: Homo sapiens; CNS SF-295; read-out: GI50
From the text: as §1

OVCAR-3 (Ovarian) = assay: ASU-CRI minipanel of human cancer cell lines; format: cell-based; details: Homo sapiens; Ovarian OVCAR-3; read-out: GI50
From the text: as §1

SK-N-SH (Neuroblast) = assay: ASU-CRI minipanel of human cancer cell lines; format: cell-based
From the text: as §1

DU-145 (Prostate) = assay: ASU-CRI minipanel of human cancer cell lines; format: cell-based; details: Homo sapiens; Prostate DU-145; read-out: GI50
From the text: as §1

NCI-H460 (Lung-NSC) = assay: ASU-CRI minipanel of human cancer cell lines; format: cell-based; details: Homo sapiens, read-out: GI50
From the text: as §1

RPMI-8226 = assay: NCI 60-cell screen; format: cell-based, human; details: Homo sapiens, averaged, quadruplicate, upper limit 10^−5 M, read-out: negative log10 GI50 (converted)
HOP-92 = assay: NCI 60-cell screen; format: cell-based, human; details: Homo sapiens, averaged, quadruplicate, upper limit 10^−5 M, read-out: negative log10 GI50 (converted)
MDA-MB-435 = assay: NCI 60-cell screen; format: cell-based, human; details: Homo sapiens, averaged, quadruplicate, upper limit 10^−5 M, read-out: negative log10 GI50 (converted)
UACC-62 = assay: NCI 60-cell screen; format: cell-based, human; details: Homo sapiens, averaged, quadruplicate, upper limit 10^−5 M, read-out: negative log10 GI50 (converted)
SW-620 = assay: NCI 60-cell screen; format: cell-based, human; details: Homo sapiens, averaged, quadruplicate, upper limit 10^−5 M, read-out: negative log10 GI50 (converted)
U251 = assay: NCI 60-cell screen; format: cell-based, human; details: Homo sapiens, U-251, averaged, quadruplicate, upper limit 10^−5 M, read-out: negative log10 GI50 (converted)
CCRF-CEM = assay: NCI 60-cell screen; format: cell-based, human; details: Homo sapiens, averaged, quadruplicate, upper limit 10^−5 M, read-out: negative log10 GI50 (converted)
[8] = system: P388 lymphocytic leukemia; assay: in vitro murine P388 lymphocytic leukemia (PS) cell growth inhibition; format: cell-based
From the text: The fractions obtained from the 1988-89 recollection of Cribrochalina so. (See: Pettit, G. R.; Collins, J. C.; Herald, D. L.; Doubek, D. L.; Boyd, M. R.; Schmidt, J. M.; Hooper, J. N. A.; Tackett, L. P. Can. J. Cheim. 1992, 70, 1170-1175) beginning with the 195 g dichloromethane partition fraction were re-examined guided by bioassay results using the murine P388 lymphocytic leukemia.
as §1

KM 12 = assay: NCI 60-cell screen; format: cell-based, human; details: Homo sapiens, KM12, averaged, quadruplicate, upper limit 10^−5 M, read-out: negative log10 GI50 (converted)
SK-MEL-5 = assay: NCI 60-cell screen; format: cell-based, human; details: Homo sapiens, averaged, quadruplicate, upper limit 10^−5 M, read-out: negative log10 GI50 (converted)
SNB-75 = assay: NCI 60-cell screen; format: cell-based, human; details: Homo sapiens, averaged, quadruplicate, upper limit 10^−5 M, read-out: negative log10 GI50 (converted)

C/C=C(/C)C(=O)OC[C@H]1C2=C(C=C3[C@H]4c5c(O)c(OC)c(C)c(O)c5C(=O)[C@@H](C(=O)N31)N4C)C(=O)C(C)=C(OC)C2=O [Cribrostatin 4, cribrostatin 4]
Minimum inhibitory concentration [1]: * (No inhibition at 100 μg/disk) | Minimum inhibitory concentration [2]: 6.25-12.5 μg/disk | GI50 (NCI-H226): 7.94 µM | GI50 [3]: 5.01 µM | GI50 (786-O): 6.17 µM | GI50 (OVCAR-8): 4.27 µM | Minimum inhibitory concentration [4]: * (No inhibition at 100 μg/disk) | GI50 (MDA-MB-231/ATCC): 2.69 µM | GI50 (T-47D): 2.09 µM | GI50 (NCI-H460): 7.59 µM | melting point: 190 to 192 °C (dec.) | GI50 (MALME-3M): 0.389 µM | GI50 (SR): 3.8 µM | GI50 (PC-3): 9.12 µM | GI50 (IGROV1): 8.51 µM | Minimum inhibitory concentration [5]: 12.5-25 μg/disk | GI50 (MOLT-4): 1.91 µM | GI50 (OVCAR-3): 3.63 µM | Minimum inhibitory concentration [6]: 1.56-3.12 μg/disk | Minimum inhibitory concentration [7]: * (No inhibition at 100 μg/disk) | GI50 (SW-1736 (Thyroid ca)): > 10 µg/mL | GI50 (BXPC-3 (Pancreas-a)): 5.6 µg/mL (≈ 9.68 µM) | GI50 (FADU (Pharynx-sq)): 0.26 µg/mL (≈ 0.449 µM) | GI50 (KM20L2 (Colon)): > 10 µg/mL | GI50 (SF-295 (CNS)): > 10 µg/mL | GI50 (OVCAR-3 (Ovarian)): 2.2 µg/mL (≈ 3.8 µM) | GI50 (SK-N-SH (Neuroblast)): 3.6 µg/mL (≈ 6.22 µM) | GI50 (DU-145 (Prostate)): > 10 µg/mL | GI50 (NCI-H460 (Lung-NSC)): > 10 µg/mL | GI50 (RPMI-8226): 6.17 µM | GI50 (HOP-92): 8.13 µM | GI50 (MDA-MB-435): 1.82 µM | GI50 (UACC-62): 9.77 µM | GI50 (SW-620): 6.92 µM | GI50 (U251): 6.46 µM | GI50 (CCRF-CEM): 1.7 µM | GI50 ([8]; Mouse Leukemia P388, read-out: GI50): 24.6 µg/mL (≈ 42.5 µM) | PS ED50 (P388 ED50) ([8]; in vitro P388 lymphocytic leukemia, listed as cribrostatin 4): 25 µg/mL and 24 µg/mL | GI50 (KM 12): 9.12 µM | GI50 (SK-MEL-5): 8.13 µM | GI50 (SNB-75): 5.62 µM
